Drawing on US20230339949A1, “HETEROCYCLIC SUBSTITUTED FUSED y-CARBOLINE DERIVATIVE, PREPARATION METHOD THEREFOR, INTERMEDIATE THEREOF AND USE THEREOF” (SHUJING BIOPHARMA CO., LTD, priority 2020, published 2023), this text covers IC50 for three compounds.

What all share (type): cell-based
One test has as its target T1, D2L receptor (Homo sapiens, UniProt P14416).
T1 construct: expressed in transfected cells
Description: Functional activity test on D2L receptor, cAMP detection (Gi antagonist test). As to conditions: cryopreserved CHO-K1/D2L/Gα15 cells, forskolin + dopamine EC90. The text has this: (§1) The antagonistic effects of the compounds of the present disclosure on D2L and D2S receptors were detected by cyclic adenosine monophosphate (cAMP) detection method at cell-level.
(§2) • (1) Test compound: compounds of the embodiment of the present disclosure, self-made. • (2) Control compound: dopamine hydrochloride (Sigma, H8502), (+)-Butaclamol hydrochloride (Sigma, D033). • (3) Stable cell line:
(§3) • (1) Preparation of test compounds: the compounds of the embodiments of the present disclosure were respectively dissolved in DMSO to prepare 10 mM mother liquor, and the mother liquor was stored in the nitrogen cabinet for later use. • (2) Preparation of control compound: the control compound was dissolved in DMSO to prepare 10 mM mother liquor, and the mother liquor was repackaged and stored in the refrigerator at −80° C. for later use. • (3) IBMX was dissolved in DMSO to prepare 0.5 M stock solution and the stock solution was cryopreserved at −80° C. • (4) Forskolin was dissolved in DMSO to prepare 1 mM stock solution and the stock solution was cryopreserved at −80° C. for later use. • (5) Experimental buffer: 5× stimulation buffer was diluted to 1× with ddH2O and IBMX with a final concentration of 0.5 mM was added thereto, and the solution was mixed well for later use.
(§4) • (1) Preparation of compounds: the test compounds and positive control compound (+)-Butaclamol hydrochloride were diluted gradient using Bravo in the compound plate (Greiner-781280), and the initial concentration of working solution was 20 μM, and the working solution was diluted at 4-fold for 10 concentrations and centrifuged at 1000 rpm for 1 minute for later use. • (2) Cryopreserved D2L cells: cells was taken out from the liquid nitrogen tank and thaw in a water bath at 37° C., and the cell suspension was transferred to a centrifuge tube containing HBSS buffer, and centrifuged at 750 rpm for 5 minutes.
(§5) Cultured D2S cells: after absorbing the culture medium, the cells were washed with 3 mL PBS, sucked out, digested with 0.05% Trypsin for 3 min, terminated with equal volume of culture medium, transferred to centrifuge tube, and centrifuged at 750 rpm for 5 minutes. After absorbing the liquid, the centrifuge tube was added with a buffer solution containing HBSS and re-suspend, and centrifuged at 750 rpm for 5 minutes. • (3) The supernatant was discarded, and the precipitate was re-suspended with proper amount of experimental buffer, and 20 μL was taken for cell counting. • (4) Appropriate amount of cell suspension was removed, and the cell suspension was diluted to 2×10^5 cells/mL with experimental buffer, and the cell plate (PerkinElmer-6008280) was added with 5 μL/well cell suspension, and centrifuged at 1000 rpm for 1 minute. • (5) 5 μL/well was transferred to the cell plate with Bravo, and the cell plate was centrifuged at 1000 rpm for 1 minute, then the cell plate was closed and incubated at room temperature for 15 minutes. • (6) Forskolin was transferred to the cell plate with Tecan-D300e, and Dopamine hydrochloride with a final concentration of EC90 was transferred to the cell plate. • (7) The cell plate was centrifuged at 1000 rpm for 1 minute, then sealed and incubated at room temperature for 45 minutes. • (8) Standard curve: cAMP with the stock solution concentration of 2848 nM was diluted 4-fold continuously at 8 points according to the initial maximum concentration of 712 nM, and 10 μL/well was taken out to add to the cell plate. • (9) 10 μL/well of detection solution containing cAMP-d2 and Anti-cAMP-Cryptate (diluted with pyrolysis buffer at 1:20) was added to the cell plate, and the cell plate was centrifuged at 1000 rpm for 1 minute, and incubated at room temperature without light for 1 hour. • (10) Detection: the cell plate was centrifuged at 1000 rpm for 1 minute, and the plate was read with Envision (excitation light 340 nm, emission light 620 nm and 665 nm). […]

The next test addresses T2, 5-HT2A receptor (Homo sapiens, UniProt P28223).
T2 construct: expressed in transfected cells
Put plainly: Functional detection experiment of 5-HT2A receptor (cultured cells), calcium influx assay. The source says: The antagonistic effect of the compound of the present disclosure on the 5-HT2A receptor was detected by a calcium influx assay at the cellular level.
• (1) Test compounds: compounds of the embodiments of the present disclosure, self-made. • (2) Control compound: serotonin hydrochloride 5-hydroxytryptamine (Sigma, H9523), Ketanserin (Targetmol, T1066). • (3) Stable cell line:
• (1) Preparation of test compounds: the compounds of the embodiments of the present disclosure were respectively dissolved in DMSO to prepare 10 mM mother liquor, and the mother liquor was stored in the nitrogen cabinet for later use. • (2) Preparation of control compound: the control compound was dissolved in DMSO to prepare 10 mM mother liquor, and the mother liquor was repackaged and stored in the refrigerator at -80° C. for later use. • (3) Preparation of 250 mM probenecid solution: 1 mL experimental buffer was added into a tube containing 77 mg powder, and the powder was dissolved by vortex oscillation. • (4) Preparation of 2× fluorescent probe solution: a bottle of fluorescent probe dry powder was taken out to balance to room temperature, and 10 mL of experimental buffer solution and 200 μL of 250 mM probenecid solution were added thereto, and the mixture was scrolled and let stand for 5 minutes to ensure complete dissolution. • (5) Experimental buffer HBSS: HBSS and HEPES were mixed evenly in a ratio of 50:1, stored in a refrigerator at 4° C., and heated at 37° C. when used.
• (1) Cells were taken out from the liquid nitrogen tank and melted in a water bath at 37° C. The surface of the cryopreservation tube was wiped with 75% alcohol and put in the biosafety cabinet. • (2) The cell suspension was transferred to a 15 mL centrifuge tube with 4 mL preheated plating medium, and the tube was centrifuged at 1000 rpm for 5 minutes. • (3) The supernatant was discarded, and 10 mL of plating medium was added and blown gently, and the mixture was transferred to a culture dish for growth. After the cells had adhered to the wall for 24 hours, they were replaced with growth medium for continuous culture.
• (1) The logarithmic growth cells was taken and the cells grew to about 85%-90%. The cells were performed the following operations: cell cleaning, digestion, termination, then transferred to a 15 mL centrifuge tube, and the tube was centrifuged at room temperature at 1000 rpm for 5 minutes. • (2) The supernatant was discarded, and a certain plating medium was added and blown gently. 20 μL of cell suspension was taken out and counted. • (3) Cells were diluted to 1×10^6 cells/mL and 20 μL of cell suspension was added to each well of the cell plate (Greiner-781946), so that the density of each well is 2×10^4 cells/well. • (4) The cell plate was incubated in an incubator with 5% CO2 at 37° C. for 16-24 hours. […]

The target of the next test is T3, D2S receptor (Homo sapiens, UniProt P14416).
T3 construct: expressed in transfected cells
T3 sequence (P14416 1-414 isoform P14416-2): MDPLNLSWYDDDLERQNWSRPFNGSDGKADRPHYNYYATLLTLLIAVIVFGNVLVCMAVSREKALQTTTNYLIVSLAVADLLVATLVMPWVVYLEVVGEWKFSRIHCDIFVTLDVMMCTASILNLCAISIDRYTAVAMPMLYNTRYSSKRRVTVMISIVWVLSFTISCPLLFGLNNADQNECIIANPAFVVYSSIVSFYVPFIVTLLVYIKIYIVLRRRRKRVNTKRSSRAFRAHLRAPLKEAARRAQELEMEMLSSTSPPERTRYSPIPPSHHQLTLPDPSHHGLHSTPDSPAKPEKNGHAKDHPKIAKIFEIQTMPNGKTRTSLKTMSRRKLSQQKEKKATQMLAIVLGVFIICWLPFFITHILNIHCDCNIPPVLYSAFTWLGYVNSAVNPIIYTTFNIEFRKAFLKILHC
Description: Functional activity test on D2S receptor, cAMP detection (Gi antagonist test). The note with it: cultured HEK293/D2S cells, forskolin + dopamine EC90.
Text: as §1, §2, §3, §4, §5

The mark [1] stands for this setting: cultured CHO-K1/5-HT2A cells, calcium influx (FLIPR), antagonist mode vs agonist EC80, read-out: 5-HT2A IC50.

Read-outs that look alike come from different tables or passages of the source.

T1 sequence (P14416 whole entry): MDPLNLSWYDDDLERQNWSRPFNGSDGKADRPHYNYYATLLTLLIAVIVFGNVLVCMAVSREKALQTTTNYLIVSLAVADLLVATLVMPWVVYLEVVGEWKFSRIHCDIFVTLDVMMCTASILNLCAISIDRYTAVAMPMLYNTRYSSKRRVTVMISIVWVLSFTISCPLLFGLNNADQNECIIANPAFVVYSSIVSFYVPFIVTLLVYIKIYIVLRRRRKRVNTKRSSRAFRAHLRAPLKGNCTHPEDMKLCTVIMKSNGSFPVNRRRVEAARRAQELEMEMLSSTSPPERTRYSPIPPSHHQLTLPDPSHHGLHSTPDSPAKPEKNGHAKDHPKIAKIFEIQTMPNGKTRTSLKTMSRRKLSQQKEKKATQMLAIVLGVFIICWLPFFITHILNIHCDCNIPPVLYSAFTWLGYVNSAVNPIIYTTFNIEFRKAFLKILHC
T2 sequence (P28223 whole entry): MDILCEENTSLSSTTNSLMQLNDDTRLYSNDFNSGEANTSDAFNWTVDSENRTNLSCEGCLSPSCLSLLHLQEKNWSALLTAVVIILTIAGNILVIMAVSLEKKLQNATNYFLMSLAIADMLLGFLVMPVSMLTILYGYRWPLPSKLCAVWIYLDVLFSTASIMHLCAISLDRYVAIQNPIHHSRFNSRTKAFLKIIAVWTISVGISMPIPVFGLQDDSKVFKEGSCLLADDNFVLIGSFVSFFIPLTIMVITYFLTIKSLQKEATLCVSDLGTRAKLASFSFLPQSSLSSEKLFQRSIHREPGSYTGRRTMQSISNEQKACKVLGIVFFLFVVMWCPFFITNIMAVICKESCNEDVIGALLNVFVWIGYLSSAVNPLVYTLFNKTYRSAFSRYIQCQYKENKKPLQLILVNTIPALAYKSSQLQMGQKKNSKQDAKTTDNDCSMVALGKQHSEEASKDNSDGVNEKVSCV

With `CN1C(=O)CN2c3c1cccc3[C@]1(C)CN(CCCC(=O)c3ccc(F)cc3)CC[C@H]21` [Embodiment 1-A, (6bR,10aS)-8-(4-(4-fluorophenyl)-4-oxobutyl)-3,6b-dimethyl-6b,7,8,9,10,10a-hexahydro-1H-pyrido[3′,4′:4,5]pyrrolo [1,2,3-de]quinoxalin-2(3H)-one], the concentration for half-maximal inhibition (IC50) was 30.9 nM at D2L receptor, 0.78 nM on 5-HT2A receptor (setting [1]) and 261 nM at D2S receptor.
The matching figures for `CN1CCN2c3c(cccc31)[C@@H]1CN(CCCC(=O)c3ccc(F)cc3)CC[C@@H]12` [ITI-007, Lumateperone, reference compound]: 131 nM, 3.35 nM and 344 nM.
As for `CN1C(=O)CN2c3c1cccc3C1(C)CN(CCCC(=O)c3ccc(F)cc3)CCC21` (stereo not drawn) [Embodiment 1, 8-(4-(4-fluorophenyl)-4-oxobutyl)-3,6b-dimethyl-6b,7,8,9,10,10a-hexahydro-1H-pyrido[3′,4′:4,5]pyrrolo[1,2,3-de]quinoxalin-2(3H)-one], the IC50 amounted to 20.3 nM at D2L receptor, 3.72 nM on 5-HT2A receptor and 95.4 nM on D2S receptor.

In general, IC50 refers to the concentration at which inhibition is half-maximal.
